What is called inhibition is the change of the read-out against control, counted positive when it falls. One may read the IC50 as the concentration that gives 50% inhibition. Read a high IC50 as weaker potency in that assay.

Experimental findings from publication PMC9217908, “Screening of commonly prescribed drugs for effects on the CAT1-mediated transport of L-arginine and arginine derivatives” (Amino Acids, 2022) are described below.

For experiment [1], the target named is T1, CAT1 (cationic amino acid transporter 1, CAT1/SLC7A1) (Homo sapiens, UniProt P30825).
T1 construct: full-length human transporter stably transfected in HEK cells (HEK-CAT1); net uptake against HEK-VC vector control cells
Put plainly: inhibition of [3H]-L-homoarginine uptake in HEK-CAT1 cells. The format is cell-based. The settings on record: read-out: % inhibition at 20 μM.

In experiment [2] the target is T1, CAT1 (cationic amino acid transporter 1, CAT1/SLC7A1). Put plainly: inhibition of [3H]-L-arginine uptake in HEK-CAT1 cells. The format is cell-based. From the text: inhibition of [3H]-L-arginine uptake in HEK-CAT1 cells on CAT1 (cationic amino acid transporter 1, CAT1/SLC7A1) | verapamil inhibited CAT1-mediated uptake of L-arginine, L-homoarginine, and ADMA with IC50 values

The target is the same in experiment [3]. Put plainly: cell-based. As to conditions: HEK293, L-arginine 100 uM as substrate; for inhibition at 20 µM: read-out: % Inhibition of L-arginine uptake at 20 µM; for inhibition at 200 µM: read-out: % Inhibition of L-arginine uptake at 200 µM. Also on record: species or system HEK-CAT1 (HEK293 stably transfected); Inhibition of net CAT1-mediated [3H]-L-arginine (100 uM) uptake, 5 min, scintillation counting, vector control subtracted. The method, boiled down:
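HEK-CAT1 and vector-control HEK-VC cells took up [3H]-L-arginine (100 μM) for 5 min, with or without drug at 20 or 200 µM; [3H]-L-homoarginine or [3H]-ADMA uptake ran 2.5 min. Net uptake is CAT1 minus VC cells, and inhibition (%) = 100 − (V/V0 × 100). Negative values mean stimulated uptake.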

The target is the same in experiment [4]. Put plainly: cell-based. As to conditions: HEK293, ADMA 1 uM as substrate; for inhibition at 20 µM: read-out: % Inhibition of ADMA uptake at 20 µM; for inhibition at 200 µM: read-out: % Inhibition of ADMA uptake at 200 µM. Also on record: species or system HEK-CAT1 (HEK293 stably transfected); Inhibition of net CAT1-mediated [3H]-ADMA (1 uM) uptake, 2.5 min, scintillation counting, vector control subtracted. The essentials: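 HEK cells expressing CAT1 and vector-control cells took up [^3H]-L-arginine for 5 min, or [^3H]-L-homoarginine or [^3H]-ADMA (1 μM) for 2.5 min, with or without drug at 20 or 200 µM. Net CAT1 uptake was CAT1 cells minus control cells, and inhibition (%) = 100 − V/V0×100. Negative values mean stimulation; n = 6–9.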

Experiment [5] has the same target. Put plainly: cell-based. The settings on record: HEK293, L-homoarginine 1 uM as substrate; for inhibition at 200 µM: read-out: % Inhibition of L-homoarginine uptake at 200 µM; for inhibition at 20 µM: read-out: % Inhibition of L-homoarginine uptake at 20 µM. Also on record: species or system HEK-CAT1 (HEK293 stably transfected); Inhibition of net CAT1-mediated [3H]-L-homoarginine (1 uM) uptake, 2.5 min, scintillation counting, vector control subtracted. The method, boiled down:
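HEK-CAT1 cells with HEK-VC vector controls; [3H]-L-homoarginine (1 μM) uptake over 2.5 min with or without test compound at 20 µM or 200 µM. Net CAT1 uptake (CAT1 minus VC) gives inhibition (%) = 100 – (V/V0 × 100). Negative values mean stimulated uptake; n = 6–9 from at least two independent experiments.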

For experiment [6] the target is unchanged. Put plainly: inhibition of [3H]-L-arginine uptake in HEK-CAT1 cells, Lineweaver-Burk. Type of experiment: cell-based. As to conditions: substrate L-arginine; competitive.

Read-outs that look alike come from different tables or passages of the source.

T1 sequence (P30825 whole entry): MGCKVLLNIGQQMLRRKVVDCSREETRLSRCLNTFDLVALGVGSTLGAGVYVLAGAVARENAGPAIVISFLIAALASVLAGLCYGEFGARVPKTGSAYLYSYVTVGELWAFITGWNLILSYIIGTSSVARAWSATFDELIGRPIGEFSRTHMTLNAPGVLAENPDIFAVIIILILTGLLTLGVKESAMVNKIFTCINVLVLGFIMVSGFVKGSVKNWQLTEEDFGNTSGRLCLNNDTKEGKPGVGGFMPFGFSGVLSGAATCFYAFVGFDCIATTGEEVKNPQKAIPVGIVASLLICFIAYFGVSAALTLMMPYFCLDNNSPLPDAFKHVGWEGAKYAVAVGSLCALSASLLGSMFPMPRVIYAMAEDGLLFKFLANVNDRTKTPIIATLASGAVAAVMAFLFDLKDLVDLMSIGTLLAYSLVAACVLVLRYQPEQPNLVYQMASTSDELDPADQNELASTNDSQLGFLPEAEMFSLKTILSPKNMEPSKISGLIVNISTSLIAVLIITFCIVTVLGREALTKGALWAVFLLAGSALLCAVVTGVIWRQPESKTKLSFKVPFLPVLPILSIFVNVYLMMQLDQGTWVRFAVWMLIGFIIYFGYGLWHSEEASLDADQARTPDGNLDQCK

Consider `O=C(OC1C[C@H]2CC[C@@H](C1)[N+]21CCCC1)C(O)(c1ccccc1)c1ccccc1` (stereo partly shown) [trospium], for which the inhibition at 20 µM in experiment [1] stood at 28.6%.
In experiment [2], `COc1ccc(CCN(C)CCCC(C#N)(c2ccc(OC)c(OC)c2)C(C)C)cc1OC` (stereo not shown) [verapamil] came in with an IC50 of 85.3 µM. In addition, the inhibition at 20 µM in experiment [3] worked out at 29.3 ± 1.1%; in experiment [4], 24.1 ± 2.3%. Further, the inhibition at 200 µM in experiment [3] came to 27.5 ± 3.7%; in experiment [4], 44.2 ± 4.4%.
On to `COc1cc2nc(N3CCN(C(=O)c4ccco4)CC3)nc(N)c2cc1OC` [prazosin], for which the figures for the inhibition at 200 µM in experiment [5], in experiment [3] and in experiment [4] were 9.7 ± 6.1%, 9.9 ± 3.1% and 5.1 ± 2.3%, respectively. The inhibition at 20 µM in experiment [1] came to 38.2%; in experiment [3], 9.8 ± 4.3%; in experiment [4] it was 36.9 ± 4.1%.
Turning to `CN(C)C(=N)NCCC[C@H](N)C(=O)O` [ADMA], in experiment [6], the “inhibition of [3H]-L-arginine uptake in HEK-CAT1 cells, Lineweaver-Burk” value was “competitive inhibition pattern for L-homoarginine and ADMA”.
In the case of `C#C[C@]1(O)CC[C@H]2[C@@H]3CCc4cc(O)ccc4[C@H]3CC[C@@]21C` [Ethinylestradiol], the inhibition at 20 µM in experiment [5] is 8.2 ± 5.4%; in experiment [3] it was 7.4 ± 5.9%; in experiment [4], -1.6 ± 3.4%. The inhibition at 200 µM in experiment [5] was -10.1 ± 0.5%; in experiment [3], -10.5 ± 3.3%; in experiment [4], -35.3 ± 0.8%.
For the compound `CO[C@H]1/C=C/O[C@@]2(C)Oc3c(C)c(O)c4c(O)c(c(/C=N/N5CCN(C)CC5)c(O)c4c3C2=O)NC(=O)/C(C)=C\C=C\[C@H](C)[C@H](O)[C@@H](C)[C@@H](O)[C@@H](C)[C@H](OC(C)=O)[C@@H]1C` [Rifampicin], the inhibition at 20 µM was -5.6 ± 7.8% in experiment [5], -8.1 ± 11.5% in experiment [3] and -5.5 ± 4.2% in experiment [4].
On to `COC(=O)[C@H](c1ccccc1Cl)N1CCc2sccc2C1` [Clopidogrel], for which the inhibition at 20 µM in experiment [5] was 1.9 ± 5.4%; in experiment [3] it was 6.4 ± 4.4%; in experiment [4] it was -11 ± 8.1%. Moreover, the inhibition at 200 µM in experiment [5] was 0.8 ± 3.1%; in experiment [3], 1.5 ± 4.1%; in experiment [4] it was -8.9 ± 14.9%.
For the compound `CN/C(=N\CCSCc1nc[nH]c1C)NC#N` [Cimetidine], the figures for the inhibition at 20 µM in experiment [5], in experiment [3] and in experiment [4] were 21.9 ± 3%, 0.2 ± 7.2% and 21.9 ± 3.1%, respectively. The figures for the inhibition at 200 µM in experiment [5], in experiment [3] and in experiment [4] were -31.2 ± 1.3%, -65.4 ± 5.8% and 1.1 ± 2.5%, respectively.
With `CNCCCN1c2ccccc2CCc2ccccc21` [Desipramine], the inhibition at 20 µM in experiment [5] is -10.3 ± 2.1%; in experiment [3] it was -10.8 ± 2.3%; in experiment [4], -0.7 ± 3.1%. In addition, the inhibition at 200 µM in experiment [5] is 11.6 ± 7.2%; in experiment [3] it was 8.3 ± 6.7%; in experiment [4], -37.6 ± 11.8%.
Take `NCCCC[C@H](N[C@@H](CCc1ccccc1)C(=O)O)C(=O)N1CCC[C@H]1C(=O)O` [Lisinopril]: the results for the inhibition at 20 µM in experiment [5], in experiment [3] and in experiment [4] were 6.4 ± 3.1%, 4.6 ± 3.8% and 1.6 ± 1.9%, respectively. In addition, the figures for the inhibition at 200 µM in experiment [5], in experiment [3] and in experiment [4] were -11.4 ± 3.8%, -12.6 ± 5% and 15.7 ± 0.8%, respectively.
Regarding `C[C@]12C=CC(=O)C=C1CC[C@@H]1[C@@H]2C(=O)C[C@@]2(C)[C@H]1CC[C@]2(O)C(=O)CO` [Prednisone], the inhibition at 20 µM in experiment [5] was 12.5 ± 2.7%; in experiment [3], 13.9 ± 3.4%; in experiment [4], -33.3 ± 2.3%. Also, the inhibition at 200 µM in experiment [5] was 13.2 ± 2.6%; in experiment [3], 19.1 ± 0.8%; in experiment [4] it was -16.9 ± 2.24%.
Take `CC(C)NCC(O)COc1ccc(COCCOC(C)C)cc1` (stereo not shown) [Bisoprolol]: the figures for the inhibition at 20 µM in experiment [5], in experiment [3] and in experiment [4] were -11.1 ± 1.9%, -13.1 ± 0.7% and -2.8 ± 1.6%, respectively. In addition, the inhibition at 200 µM in experiment [5] is -14.9 ± 2.5%; in experiment [3] it was -17.2 ± 15.5%; in experiment [4] it was 16.2 ± 4.2%.
Turning to `N=C(N)NCCCC[C@H](N)C(=O)O` [L-homoarginine], the “inhibition of [3H]-L-arginine uptake in HEK-CAT1 cells, Lineweaver-Burk” value in experiment [6] is “competitive inhibition pattern for L-homoarginine and ADMA”.
Regarding `O=C(O)Cc1ccccc1Nc1c(Cl)cccc1Cl` [Diclofenac], the inhibition at 20 µM in experiment [5] was -15.1 ± 2.1%; in experiment [3] it was -15.9 ± 2.5%; in experiment [4], 26.1 ± 5.3%. Further, the inhibition at 200 µM in experiment [5] was -23.1 ± 2.2%; in experiment [3], -91.4 ± 5%; in experiment [4], -21.2 ± 2.8%.
As to `CC12CC3CC(C)(C1)CC(N)(C3)C2` [Memantine], the inhibition at 20 µM was -3.9 ± 3.4% in experiment [5], -3.2 ± 3.9% in experiment [3] and 14.8 ± 2.6% in experiment [4]. In addition, the figures for the inhibition at 200 µM in experiment [5], in experiment [3] and in experiment [4] were -16.6 ± 0.8%, -21.7 ± 5.1% and -9.6 ± 1.8%, respectively.
As to `Oc1ncnc2[nH]ncc12` [Allopurinol], the values for the inhibition at 200 µM in experiment [5], in experiment [3] and in experiment [4] were -2.6 ± 1.6%, 14.1 ± 9.6% and 2 ± 7%, respectively. Besides, the inhibition at 20 µM in experiment [3] worked out at 5 ± 16.4%; in experiment [4] it was 16.9 ± 2.6%.
For `CC[C@H](C)C(=O)O[C@H]1C[C@H](O)C=C2C=C[C@H](C)[C@H](CC[C@@H](O)C[C@@H](O)CC(=O)O)[C@H]21` [Pravastatin], the inhibition at 20 µM is -0.4 ± 3.8% in experiment [5], 0.2 ± 4.4% in experiment [3] and -18.5 ± 3.3% in experiment [4]. The inhibition at 200 µM is -10.1 ± 1.4% in experiment [5], 4.1 ± 2.6% in experiment [3] and -4.4 ± 9.6% in experiment [4].
In the case of `CC(CN(C)C)CN1c2ccccc2CCc2ccccc21` (stereo not shown) [Trimipramine], the values for the inhibition at 20 µM in experiment [5], in experiment [3] and in experiment [4] were 1.8 ± 4.5%, 1.3 ± 2.4% and -26.1 ± 11.5%, respectively. Moreover, the figures for the inhibition at 200 µM in experiment [5], in experiment [3] and in experiment [4] were 34.1 ± 3.8%, 24.2 ± 4.5% and -13.4 ± 3.7%, respectively.
